The source made the active and inactive calls. No rule for the calls is given here.
Test system: CCRIS mutagenicity, Ames/micronucleus/aberration tests
Test: CCRIS mutagenicity studies
[1] = Test System: AMES SALMONELLA TYPHIMURIUM, Strain/Indicator: TA98, Metabolic Activation: NONE, Method: STANDARD PLATE
[2] = Test System: AMES SALMONELLA TYPHIMURIUM, Strain/Indicator: TA98, Metabolic Activation: RAT, LIVER, S-9, AROCLOR 1254, Method: STANDARD PLATE
[3] = Test System: AMES SALMONELLA TYPHIMURIUM, Strain/Indicator: TA100, Metabolic Activation: NONE, Method: STANDARD PLATE
[4] = Test System: AMES SALMONELLA TYPHIMURIUM, Strain/Indicator: TA100, Metabolic Activation: RAT, LIVER, S-9, AROCLOR 1254, Method: STANDARD PLATE
[5] = Test System: Ames Salmonella typhimurium, Strain/Indicator: TA98, Metabolic Activation: None, Method: Preincubation
[6] = Test System: Ames Salmonella typhimurium, Strain/Indicator: TA100, Metabolic Activation: None, Method: Preincubation

COc1ccc([C@@H]2CC(=O)c3c(O)cc(O[C@@H]4O[C@H](CO[C@@H]5O[C@@H](C)[C@H](O)[C@@H](O)[C@H]5O)[C@@H](O)[C@H](O)[C@H]4O)cc3O2)cc1O
mutagenic call [1]: inactive; negative
mutagenic call [2]: inactive; negative
mutagenic call [3]: inactive; negative
mutagenic call [4]: inactive; negative
mutagenic call (Test System: AMES SALMONELLA TYPHIMURIUM, Strain/Indicator: TA1535, Metabolic Activation: NONE, Method: STANDARD PLATE): inactive; negative
mutagenic call (Test System: AMES SALMONELLA TYPHIMURIUM, Strain/Indicator: TA1535, Metabolic Activation: RAT, LIVER, S-9, AROCLOR 1254, Method: STANDARD PLATE): inactive; negative
mutagenic call (Test System: AMES SALMONELLA TYPHIMURIUM, Strain/Indicator: TA1537, Metabolic Activation: NONE, Method: STANDARD PLATE): inactive; negative
mutagenic call (Test System: AMES SALMONELLA TYPHIMURIUM, Strain/Indicator: TA1537, Metabolic Activation: RAT, LIVER, S-9, AROCLOR 1254, Method: STANDARD PLATE): inactive; negative
mutagenic call (Test System: AMES SALMONELLA TYPHIMURIUM, Strain/Indicator: TA1538, Metabolic Activation: NONE, Method: STANDARD PLATE): inactive; negative
mutagenic call (Test System: AMES SALMONELLA TYPHIMURIUM, Strain/Indicator: TA1538, Metabolic Activation: RAT, LIVER, S-9, AROCLOR 1254, Method: STANDARD PLATE): inactive; negative
mutagenic call (Test System: E. COLI, Strain/Indicator: WP2, Metabolic Activation: NONE, Method: STANDARD PLATE): inactive; negative
mutagenic call (Test System: E. COLI, Strain/Indicator: WP2, Metabolic Activation: RAT, LIVER, S-9, AROCLOR 1254, Method: STANDARD PLATE): inactive; negative

O=C(Nc1ccc([N+](=O)[O-])cc1)c1csc([N+](=O)[O-])c1
mutagenic call [1]: active; positive
mutagenic call [3]: active; positive

CC1(C)CON(Cc2ccccc2Cl)C1=O
mutagenic call (End Point: In vivo chromosomal aberrations, Test System: Bone marrow, Species: Rat, Strain/Sex: Sprague-Dawley/Male, Route: Gavage): inactive; negative (purity 88.8%)
mutagenic call (Test System: Ames Salmonella typhimurium, Strain/Indicator: TA98, Metabolic Activation: None, Method: Standard Plate): inactive; negative (purity 92.4%)
mutagenic call (Test System: Ames Salmonella typhimurium, Strain/Indicator: TA98, Metabolic Activation: Rat, liver, S-9, Aroclor 1254, Method: Standard Plate): inactive; negative (purity 92.4%)
mutagenic call (Test System: Ames Salmonella typhimurium, Strain/Indicator: TA100, Metabolic Activation: None, Method: Standard Plate): inactive; negative (purity 92.4%)
mutagenic call (Test System: Ames Salmonella typhimurium, Strain/Indicator: TA100, Metabolic Activation: Rat, liver, S-9, Aroclor 1254, Method: Standard Plate): inactive; negative (purity 92.4%)
mutagenic call (Test System: Ames Salmonella typhimurium, Strain/Indicator: TA1535, Metabolic Activation: None, Method: Standard Plate): inactive; negative (purity 92.4%)
mutagenic call (Test System: Ames Salmonella typhimurium, Strain/Indicator: TA1535, Metabolic Activation: Rat, liver, S-9, Aroclor 1254, Method: Standard Plate): inactive; negative (purity 92.4%)
mutagenic call (Test System: Ames Salmonella typhimurium, Strain/Indicator: TA1537, Metabolic Activation: None, Method: Standard Plate): inactive; negative (purity 92.4%)
mutagenic call (Test System: Ames Salmonella typhimurium, Strain/Indicator: TA1537, Metabolic Activation: Rat, liver, S-9, Aroclor 1254, Method: Standard Plate): inactive; negative (purity 92.4%)
mutagenic call (Test System: Ames Salmonella typhimurium, Strain/Indicator: TA1538, Metabolic Activation: None, Method: Standard Plate): inactive; negative (purity 92.4%)
mutagenic call (Test System: Ames Salmonella typhimurium, Strain/Indicator: TA1538, Metabolic Activation: Rat, liver, S-9, Aroclor 1254, Method: Standard Plate): inactive; negative (purity 92.4%)
mutagenic call (Test System: UDS Rat hepatocytes, Strain/Indicator: Thymidine incorporation, Metabolic Activation: None, Method: Autoradiography): inactive; negative (purity 88.8%)

O=CN(O)c1ccc(Cl)cc1
mutagenic call [1]: inactive; negative
mutagenic call [2]: active; positive
mutagenic call [3]: inactive; negative
mutagenic call [4]: active; positive

Oc1ccc(Cc2ccc(O)cc2)cc1
mutagenic call (End Point: In vitro micronucleus, Test System: HepG2 cells, Metabolic Activation: None): inactive; negative
mutagenic call [5]: inactive; negative
mutagenic call (Test System: Ames Salmonella typhimurium, Strain/Indicator: TA98, Metabolic Activation: Rat, Liver, S-9, Aroclor 1254, Method: Preincubation): inactive; negative
mutagenic call [6]: inactive; negative
mutagenic call (Test System: Ames Salmonella typhimurium, Strain/Indicator: TA100, Metabolic Activation: Rat, Liver, S-9, Aroclor 1254, Method: Preincubation): inactive; negative
mutagenic call (Test System: Ames Salmonella typhimurium, Strain/Indicator: TA1535, Metabolic Activation: None, Method: Preincubation): inactive; negative
mutagenic call (Test System: Ames Salmonella typhimurium, Strain/Indicator: TA1535, Metabolic Activation: Rat, Liver, S-9, Aroclor 1254, Method: Preincubation): inactive; negative
mutagenic call (Test System: Ames Salmonella typhimurium, Strain/Indicator: TA1537, Metabolic Activation: None, Method: Preincubation): inactive; negative
mutagenic call (Test System: Ames Salmonella typhimurium, Strain/Indicator: TA1537, Metabolic Activation: Rat, Liver, S-9, Aroclor 1254, Method: Preincubation): inactive; negative
mutagenic call (Test System: E. coli, Strain/Indicator: W2 uvrA pKM101, Metabolic Activation: None, Method: Preincubation): inactive; negative
mutagenic call (Test System: E. coli, Strain/Indicator: W2 uvrA pKM101, Metabolic Activation: Rat, Liver, S-9, Aroclor 1254, Method: Preincubation): inactive; negative

COP(N)(=O)SC (centres undefined)
mutagenic call [5]: active; positive
mutagenic call (Test System: Ames Salmonella typhimurium, Strain/Indicator: TA98, Metabolic Activation: Rat, Liver, S-9 (10%), Aroclor 1254, Method: Preincubation): active; positive
mutagenic call [6]: inactive; negative
mutagenic call (Test System: Ames Salmonella typhimurium, Strain/Indicator: TA100, Metabolic Activation: Rat, Liver, S-9 (10%), Aroclor 1254, Method: Preincubation): inactive; negative

c1ccc2sc(SNC3CCCCC3)nc2c1
mutagenic call [1]: inactive; negative
mutagenic call (Test System: AMES SALMONELLA TYPHIMURIUM, Strain/Indicator: TA98, Metabolic Activation: S-9, Method: STANDARD PLATE): inactive; negative
mutagenic call [3]: inactive; negative
mutagenic call (Test System: AMES SALMONELLA TYPHIMURIUM, Strain/Indicator: TA100, Metabolic Activation: S-9, Method: STANDARD PLATE): inactive; negative

Cc1cccc(C(=O)ON(OCc2ccccc2)C(=O)c2ccccc2)c1
mutagenic call [3]: active; positive
mutagenic call (Test System: AMES SALMONELLA TYPHIMURIUM, Strain/Indicator: TA100, Metabolic Activation: RAT, S-9, AROCLOR, Method: STANDARD PLATE): active; positive

Cl[C@@H]1C2(Cl)C3C4[C@@H]5O[C@@H]5[C@H]5C3[C@@](Cl)(C2(Cl)Cl)[C@]1(Cl)[C@@H]45 (some centres undefined)
mutagenic call (Test System: AMES SALMONELLA TYPHIMURIUM, Strain/Indicator: TA97, Metabolic Activation: HAMSTER, LIVER, S-9, AROCLOR 1254 (10%), Method: PREINCUBATION): inactive; negative
mutagenic call (Test System: AMES SALMONELLA TYPHIMURIUM, Strain/Indicator: TA97, Metabolic Activation: HAMSTER, LIVER, S-9, AROCLOR 1254 (30%), Method: PREINCUBATION): active; positive
mutagenic call (Test System: AMES SALMONELLA TYPHIMURIUM, Strain/Indicator: TA97, Metabolic Activation: NONE, Method: PREINCUBATION): inactive; negative
mutagenic call (Test System: AMES SALMONELLA TYPHIMURIUM, Strain/Indicator: TA97, Metabolic Activation: RAT, LIVER, S-9, AROCLOR 1254 (10 OR 30%), Method: PREINCUBATION): inactive; negative
mutagenic call (Test System: AMES SALMONELLA TYPHIMURIUM, Strain/Indicator: TA98, Metabolic Activation: HAMSTER, LIVER, S-9, AROCLOR 1254 (10 OR 30%), Method: PREINCUBATION): inactive; negative
mutagenic call (Test System: AMES SALMONELLA TYPHIMURIUM, Strain/Indicator: TA98, Metabolic Activation: NONE, Method: PREINCUBATION): inactive; negative
mutagenic call (Test System: AMES SALMONELLA TYPHIMURIUM, Strain/Indicator: TA98, Metabolic Activation: RAT, LIVER, S-9, AROCLOR 1254 (10 OR 30%), Method: PREINCUBATION): inactive; negative
mutagenic call (Test System: AMES SALMONELLA TYPHIMURIUM, Strain/Indicator: TA100, Metabolic Activation: HAMSTER, LIVER, S-9, AROCLOR 1254 (10 OR 30%), Method: PREINCUBATION): inactive; negative
mutagenic call (Test System: AMES SALMONELLA TYPHIMURIUM, Strain/Indicator: TA100, Metabolic Activation: NONE, Method: PREINCUBATION): inactive; negative
mutagenic call (Test System: AMES SALMONELLA TYPHIMURIUM, Strain/Indicator: TA100, Metabolic Activation: RAT, LIVER, S-9, AROCLOR 1254 (10 OR 30%), Method: PREINCUBATION): inactive; negative
mutagenic call (Test System: AMES SALMONELLA TYPHIMURIUM, Strain/Indicator: TA1535, Metabolic Activation: HAMSTER, LIVER, S-9, AROCLOR 1254 (10 OR 30%), Method: PREINCUBATION): inactive; negative
mutagenic call (Test System: AMES SALMONELLA TYPHIMURIUM, Strain/Indicator: TA1535, Metabolic Activation: NONE, Method: PREINCUBATION): inactive; negative
mutagenic call (Test System: AMES SALMONELLA TYPHIMURIUM, Strain/Indicator: TA1535, Metabolic Activation: RAT, LIVER, S-9, AROCLOR 1254 (10 OR 30%), Method: PREINCUBATION): inactive; negative
